Laboratory results as given in patent US11802110B2, “2-amino-N-(arylsulfinyl)-acetamide compounds as inhibitors of bacterial aminoacyl-tRNA synthetase” (priority 2016, dated 2023).
In brackets after ≈: the same amount, converted by molar mass.

Key:
[1] = Human cell viability (cytotoxicity), ATP levels by CellTiter-Glo; format: cell-based; conditions: HepG2 cells (ATCC HB-8065), 24 hours incubation, read-out: IC50 (μg/mL), Cytotoxicity in HepG2 ATCC HB-8065 Cell Line
Procedure: Compounds were assessed for potential non-specific cytotoxic effects against a human hepatic cell line (HepG2 ATCC HB-8065). 96-well plates were seeded with HepG2 cells in concentration of 15,000 cells per well in 100 μL of MEM growth media completed with 1% NEAA and 1% sodium pyruvate. Border wells were filled with 100 μL of sterile PBS. Two days upon cells incubation, the compounds were added. Compound dilutions were prepared in 96-well V-bottom plate in pure DMSO. Growth media from 5 plates were aspirated and replaced with 98.7 μL of fresh growth media. 1.28 μL of compounds prepared in V-bottom plates were transferred with multichannel pipette into test plates (78.1× dilution). Final DMSO concentration was 1.28% per well. In control wells, 1.28 μL of DMSO was added in 98.7 μL of media. Compounds were tested in duplicates. Cells were incubated with compounds for 24 hours when cell viability was assessed by measuring ATP levels. ATP levels were measured by adding 50 μL of CellTiter-Glo reagent to each well and after 5 minutes of incubation luminescence was measured with SpectraMax i3. The potential effect of tested compounds on cell viability was determined by comparing the signal obtained in presence of different concentrations of the compounds with those obtained in the presence of DMSO only. The potential effects were then calculated and presented as IC50 values (μg/mL).

E. Coli LeuRS = E. Coli LeuRS (Escherichia coli (strain K12), UniProt P07813); assay: Study 2 - Isothermal titration calorimetry (ITC); format: binding; conditions: 25° C., pH 7.5, mean ± SD
Procedure: Escherichia coli BL21(DE3) cells transformed with plasmid pQE-60 containing the open-reading frame sequence of one targeted aaRS (i.e., LeuRS) were induced with 1 mM IPTG (isopropyl β-D-1-thiogalactopyranoside) for 3 hours at 37° C. Bacterial cells were harvested and lysed with 20 mM HEPES (4-(2-hydroxyethyl)-1-piperazinylethane-sulfonic acid) (pH 7.5), 300 mM NaCl, 15 mM imidazole and 1 mM DTT (1,4-dithio-D-threitol). The pathogenic aaRS was first purified by nickel affinity standard chromatography. The eluted protein was concentrated and then further purified by gel filtration using 50 mM HEPES (pH 7.5), 150 mM NaCl buffer.
ITC studies were carried out using a Microcal ITC200 instrument (GE Healthcare). Protein concentration was determined by spectrophotometry by measuring the absorbance at 280 nm using a theoretical molar extinction coefficient of 169,140 M^−1cm^−1. Ligand stock solutions were prepared in DMSO at 62.5 mM concentration. The titrations were performed at 25° C. with 7.5-100 μM E. Coli LeuRS in 50 mM HEPES, 150 mM NaCl, pH 7.5 buffer containing 1% DMSO (v/v). The protein solution in the 280 μL sample cell was titrated with the inhibitor solution (diluted to 75-3000 μM in the same buffer as the protein) using 1-2 μL injections every 120-140 seconds. All titrations were repeated at least two times. To correct for heats of dilution and mixing, the final baseline consisting of small peaks of identical size at the end of each experiment was subtracted. The experimental data were fitted to a theoretical titration curve (one site model) using MicroCal Origin 7 SR4 software.
Note that Compounds R-4.1 and S-4.1 (in Table 15, below) correspond to Compounds V-i and V-ii (in Tables 13 and 14, above), respectively.

[2] = tested on: Klebsiella pneumoniae ATCC 700603; assay: Study 4 - MIC by broth micro-dilution (CLSI); format: cell-based; conditions: Klebsiella pneumoniae, ATCC700603
Procedure: (§1) Minimum Inhibitory Concentrations (MICs) were determined by the broth micro-dilution method performed according to Clinical Laboratory Standards Institute guidelines. For testing, 5 mg/mL DMSO solutions were prepared by dissolving solids in DMSO. Standard antibiotics were prepared according to CLSI guidelines as 5 mg/mL stock solutions. Upon DMSO stock solutions preparation, the working solutions in MH media were prepared by adding 38.4 μL of stock solution to 1461.6 μL of MH media. Out of these working solutions 100 μL were transferred to wells in the third column of 96-well assay plates. Assay plates were previously filled with 50 μL of MH media in all wells except for the wells in the third column. Upon compounds and antibiotics addition, 50 μL was transferred from the third to the fourth column, then from the fourth to the fifth and so on.
(§2) MIC value was determined by visual inspection of bacterial growth within 96-well plates. The first column in which there was no visible growth of bacteria was determined as MIC value for compound or antibiotic tested in that particular row. ATCC strains were used as reference strains for which there is a determined value of MIC values for standard antibiotics. The assay is considered valid when MIC values for standard antibiotics are within CLSI designated range for ATCC strain tested.

[3] = tested on: Escherichia coli ATCC 25922; assay: Study 4 - MIC by broth micro-dilution (CLSI); format: cell-based; conditions: Escherichia coli, ATCC25922
Procedure: as §1, §2

[4] = tested on: Pseudomonas aeruginosa ATCC 27853; assay: Study 4 - MIC by broth micro-dilution (CLSI); format: cell-based; conditions: Pseudomonas aeruginosa, ATCC27853
Procedure: as §1, §2

[5] = tested on: Acinetobacter baumannii B1931 clinical isolate; assay: Study 4 - MIC by broth micro-dilution (CLSI); format: cell-based; conditions: Acinetobacter baumannii
Procedure: as §1, §2

[6] = tested on: Enterobacter cloacae B1966 clinical isolate; assay: Study 4 - MIC by broth micro-dilution (CLSI); format: cell-based; conditions: Enterobacter cloacae
Procedure: as §1, §2

[7] = tested on: Haemophilus influenzae ATCC 49247; assay: Study 4 - MIC by broth micro-dilution (CLSI); format: cell-based; conditions: Haemophilus influenzae, ATCC49247; G = H. influenzae ATCC 49247; read-out: MIC
Procedure: as §1, §2

E. Coli LeuRS, sequence (P07813 whole entry): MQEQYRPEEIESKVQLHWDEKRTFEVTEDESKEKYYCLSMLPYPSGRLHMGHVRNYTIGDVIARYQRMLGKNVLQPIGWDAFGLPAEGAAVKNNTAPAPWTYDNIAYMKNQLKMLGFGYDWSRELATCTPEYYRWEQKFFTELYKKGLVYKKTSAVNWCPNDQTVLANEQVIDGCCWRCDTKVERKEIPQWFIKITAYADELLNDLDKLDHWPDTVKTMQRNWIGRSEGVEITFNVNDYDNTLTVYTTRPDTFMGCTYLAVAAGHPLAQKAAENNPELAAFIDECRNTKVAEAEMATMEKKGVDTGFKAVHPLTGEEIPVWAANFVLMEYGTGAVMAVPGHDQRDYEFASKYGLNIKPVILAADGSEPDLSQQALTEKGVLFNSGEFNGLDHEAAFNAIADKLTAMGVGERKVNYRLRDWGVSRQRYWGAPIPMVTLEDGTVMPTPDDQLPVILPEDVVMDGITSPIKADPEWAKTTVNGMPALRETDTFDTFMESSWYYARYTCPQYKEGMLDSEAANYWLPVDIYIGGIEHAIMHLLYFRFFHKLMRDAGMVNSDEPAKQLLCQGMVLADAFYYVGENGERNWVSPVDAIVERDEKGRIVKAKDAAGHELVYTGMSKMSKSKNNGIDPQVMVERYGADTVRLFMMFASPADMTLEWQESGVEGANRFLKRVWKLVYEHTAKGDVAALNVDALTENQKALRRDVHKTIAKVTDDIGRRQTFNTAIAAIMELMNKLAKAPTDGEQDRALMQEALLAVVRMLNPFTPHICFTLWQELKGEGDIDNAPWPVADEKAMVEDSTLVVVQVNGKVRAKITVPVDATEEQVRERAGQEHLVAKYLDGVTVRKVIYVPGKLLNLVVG

Row | SMILES | IC50 at 24 h [1] [µg/mL] | Kd (E. Coli LeuRS) [nM] | ΔG (E. Coli LeuRS) [kcal/mol] | ΔH (E. Coli LeuRS) [kcal/mol] | MIC [2] [µg/mL] | MIC [3] [µg/mL] | MIC [4] [µg/mL] | MIC [5] [µg/mL] | MIC [6] [µg/mL] | MIC [7] [µg/mL]
1 | CCC(C)C(N)C(=O)N[S+]([O-])c1ccccc1 (stereo not shown) [4.2] | > 32 |  |  |  |  |  |  |  |  | 
2 | CSCCC(N)C(=O)N[S+]([O-])c1ccccc1 (stereo not shown) [4.3] | > 64 |  |  |  |  |  |  |  |  | 
3 | CCCC(N)C(=O)N[S+]([O-])c1ccccc1 (stereo not shown) [4.4] | > 64 | 159 ± 29.4 | -9.28 ± 0.11 | -9.06 ± 0.28 |  |  |  |  |  | 
4 | CC(C)C(N)C(=O)N[S+]([O-])c1ccccc1 (stereo not shown) [4.5] | > 32 |  |  |  |  |  |  |  |  | 
5 | CC(C)C[C@@H](N)C(=O)N[S+]([O-])c1ccccc1 (stereo partly shown) [4.6] | > 32 |  |  |  |  |  |  |  |  | 
6 | CC(C)CC(C)(N)C(=O)N[S+]([O-])c1ccccc1 (stereo not shown) [4.7] | > 64 | 1820 ± 256 | -7.84 ± 0.09 | -1.66 ± 0.75 |  |  |  |  |  | 
7 | NC(Cc1ccccc1)C(=O)N[S+]([O-])c1ccccc1 (stereo not shown) [4.8] | > 64 |  |  |  |  |  |  |  |  | 
8 | NC(C(=O)N[S+]([O-])c1ccccc1)c1ccccc1 (stereo not shown) [4.9] | > 64 |  |  |  |  |  |  |  |  | 
9 | CCC(N)C(=O)N[S+]([O-])c1cccc(F)c1 (stereo not shown) [4.10] | > 64 |  |  |  |  |  |  |  |  | 
10 | CC(C)CC(N)C(=O)N[S+]([O-])c1cccc(F)c1 (stereo not shown) [4.11] | > 64 | 2.17 ± 0.08 | -11.82 ± 0.04 | -16.22 ± 0.60 | 2 (≈ 7.34 µM) | 1 (≈ 3.67 µM) | 64 (≈ 235 µM) | 8 (≈ 29.4 µM) | 4 (≈ 14.7 µM) | 4 (≈ 14.7 µM)
11 | CC(C)CC(N)C(=O)N[S+]([O-])c1cccc(Cl)c1 (stereo not shown) [4.12] | > 64 |  |  |  | 4 (≈ 13.9 µM) | 2 (≈ 6.93 µM) | 16 (≈ 55.4 µM) | 16 (≈ 55.4 µM) | 8 (≈ 27.7 µM) | 4 (≈ 13.9 µM)
12 | Cc1cccc([S+]([O-])NC(=O)C(N)CC(C)C)c1 (stereo not shown) [4.13] | > 64 | 6.62 ± 1.36 | -11.16 ± 0.12 | -8.69 ± 1.09 | 16 (≈ 59.6 µM) | 8 (≈ 29.8 µM) | > 64 | 32 (≈ 119 µM) | 32 (≈ 119 µM) | 16 (≈ 59.6 µM)
13 | COc1cccc([S+]([O-])NC(=O)C(N)CC(C)C)c1 (stereo not shown) [4.14] | > 64 | 4.02 ± 0.38 | -11.45 ± 0.06 | -12.35 ± 0.04 | 16 (≈ 56.3 µM) | 8 (≈ 28.1 µM) | 64 (≈ 225 µM) | 32 (≈ 113 µM) | 32 (≈ 113 µM) | 8 (≈ 28.1 µM)
